The values that follow come from US20170145002A1, “DEUTERATED ISOXAZOLE DERIVATIVES AND THEIR USE AS METABOTROPIC GLUTAMATE RECEPTOR POTENTIATORS” (AstraZeneca AB, priority 2015, published 2017).

Series [1] can be described thus: Metabolic stability and intrinsic clearance in human liver microsomes (HLM). The series is classed as in vitro ADME. The conditions noted are these: pooled human liver microsomes, NADPH, 37° C., 0.5-30 minutes; for microsomal CLint at 1 μM: read-out: Human Liver Microsomes Median CLint; for half-life at 1 μM: read-out: Human Liver Microsomes Median t1/2. How it is done: This assay was used to measure the in vitro metabolic stability of Compounds A, B, C and D of the application in pooled human liver microsomes. The concentration of parent compound in the reaction system for calculating intrinsic clearance of the compounds and estimating their stability in pooled human liver microsomes was evaluated by LC/MS/MS. 100 μmol/L solutions of each Compound A, B, C and D as well as 100 μmol/L solutions of each positive control compound (i.e., phenacetin, verapamil, diclofenac, imiprimine, benzydamine and metoprolol) were prepared by adding 2 μL of 10 mmol/L stock solution in DMSO to 198 μL of acetonitrile. A 1.1236 mg/mL HLM mixture was prepared by adding 1325 μL of 20 mg/mL HLM to 22260 μL of phosphate buffer. The HLM mixture (222.5 μL of the 1.1236 mg/mL mixture) and 25 μL of a 10 mM NADPH solution were added to the incubation plates. After mixing on a whirly mixer for 10 seconds, the incubation plates were pre-warmed at 37° C. for 8 minutes. The solutions of Compounds A, B, C and D (2.5 μL of the 100 μM solutions prepared before) as well as positive control solutions (2.5 μL of the 100 μM solutions prepared before) were added to the incubation plate. The incubation mixture was mixed on a whirly mixer for 10 seconds and incubation was carried out at 37° C. The reaction was quenched by transferring 20 μL of the incubated mixture at 0.5, 5, 10, 15, 20 and 30 minutes into the quenching plate containing 100 μL of cold acetonitrile. The quenching plates at 4000 rpm were centrifuged for 20 minutes, placed at 4 ° C. for 30 minutes, then re-centrifuged at 4000 rpm for 20 minutes to precipitate protein. The supernatant of each compound (40 μL) was transferred into a 96-well analysis plate. Compounds A, B, C and D were pooled together into one cassette, and pure water (160 μL) was added in each well. All incubations were performed in singlicate. API 4000 (AB sciex, USA) Ultra mass spectrometer was used to carry out the samples analysis in the MRM mode (MS/MS). Peak areas were determined from extracted ion chromatograms. Percentage of parent compound remaining was calculated from peak area of each compound or positive control. The slope value, k, was determined by linear regression of the natural logarithm of percent parent remaining vs. incubation time curve.
All calculations were carried out using Microsoft Excel. The in vitro half-life (in vitro t1/2) was determined from the slope value, wherein in vitro t1/2=−(0.693/k). Conversion of the in vitrot1/2 (in min) into the in vitro intrinsic clearance (in vitro CLint, in μL/min/mg proteins) was done by using the following equation:
in vitro CLint=(0.693/t1/2)*(volume of incubation (μL)/amount of proteins (mg)).
(In general: Microsomes from liver hold many membrane-bound enzymes, among them those of drug oxidation.)

Series [2] addresses CYP3A4 (Homo sapiens, UniProt P08684). The series is described as follows: CYP isoform phenotyping. Type of series: in vitro ADME. The note with it: for Contribution of CYP3A4 to metabolism (in words): assay conditions of Example 8; for CYP 3A4 (% contribution): recombinant human CYP isozymes, parent disappearance. How it is done:
This assay was used to determine whether Compounds A, B, C and D are metabolised by CYP enzymes.
Solutions (200 μmol/L) of each Compound A, B, C and D as well as of positive controls (phenacetin for CYP1A2, coumarin for CYP2A6, bupropion for CYP2B6, amitriptyline for CYP2C8, 2C19, 2D6 and 3A4, diclofenac for CYP2C9, chlorzoxazone for CYP2E1, midazolam for CYP3A5) were prepared by adding 4 μL of a 10 mmol/L stock solution in DMSO to 196 μL of acetonitrile. The recombinant human CYP isozymes were thawed on wet ice (over an hour). Mixtures (2670 μL) of CYP isozymes in phosphate buffer containing 112.36 nmol/L CYP1A2, 2A6, 2B6, 2C8, 2C9, 2C19, 2D6, 2E1, 3A4 or 3A5 were prepared. The CYP isozyme mixture (222.5 [EL), 25 μL of 10 mmol/L of NADPH solution and 2.5 μL of vehicle control (2: 98 DMSO/acetonitrile) were added to the blank control plate. The resulting mixture was mixed on a whirly mixer for 10 seconds before a stop solution (1000 μL) with internal standard containing 200 nmol/L of 5,5-diethyl-1,3-diphenyl-2-iminobarbituric acid and 100 nmol/L of tolbutamide was added. The blank control plate was sealed with a lid and mixed on whirly mixer for 120 seconds, and kept on ice prior to centrifugation.
The standard samples containing 200 pmol/mL hydroxybupropion and 40 pmol/mL 6-hydroxychlorzoxazone were obtained as follows: the CYP isozyme mixture (222.5 μL) and 25 μL of 10 mmol/L NADPH solution were added to separate wells of the blank control plate. 2.5 μL of a 20 nmol/mL hydroxybupropion solution was added to one well and 2.5 μL of a 4 nmol/mL 6-hydroxychlorzoxazone solution was added to the other well. Mixing was conducted on a whirly mixer for 10 seconds. The stop solution with internal standard (1000 μL) was added to both wells. The blank control plate was sealed with a lid and mixing was conducted on a whirly mixer for 120 seconds. The blank control plate was kept on ice prior to centrifugation.
The CYP isozyme mixtures (222.5 μL) and Compounds A, B, C, D and the positive controls (2.5 μL of each 200 μmol/L solution) were added to the incubation plates. Mixing on a whirly mixer was conducted for 10 seconds. The incubation plate was pre-warmed at 37° C. for 15 minutes. The CYP/compound mixture (27 μL) was transferred from the incubation plate to the 0 minute “Quenching plates” containing 120 μL of the stop solution and 3 μL of a 10 mmol/L NADPH solution. The 0 minute “Quenching plates” was sealed with a lid and kept on ice. Mixing of the 0 minute “Quenching plates” on a whirly mixer was conducted for 120 seconds. The reaction was initiated with the addition of 22 μL of a 10 mmol/L of NADPH solution to the incubation plate. Mixing of the incubation mixture on a whirly mixer was conducted for 10 seconds. The incubation was carried out at 37° C. At 5, 10, 15 and 25 minutes, the incubation mixture was mixed on a whirly mixer for 10 seconds and samples of the incubated mixture (30 μL) were transferred at each time point to wells in a separate “Quenching plate” containing 120 μL of the stop solution, which was sealed with a lid and kept on ice. Mixing on a whirly mixer was conducted for 120 seconds. […]
All calculations are carried out using Microsoft Excel. Peak areas were determined from extracted ion chromatograms. The percentage of parent remaining was calculated from peak area of Compounds A, B, C, D and positive controls. […]

Some results are limits rather than exact numbers.

CYP3A4, sequence (P08684 whole entry, canonical isoform): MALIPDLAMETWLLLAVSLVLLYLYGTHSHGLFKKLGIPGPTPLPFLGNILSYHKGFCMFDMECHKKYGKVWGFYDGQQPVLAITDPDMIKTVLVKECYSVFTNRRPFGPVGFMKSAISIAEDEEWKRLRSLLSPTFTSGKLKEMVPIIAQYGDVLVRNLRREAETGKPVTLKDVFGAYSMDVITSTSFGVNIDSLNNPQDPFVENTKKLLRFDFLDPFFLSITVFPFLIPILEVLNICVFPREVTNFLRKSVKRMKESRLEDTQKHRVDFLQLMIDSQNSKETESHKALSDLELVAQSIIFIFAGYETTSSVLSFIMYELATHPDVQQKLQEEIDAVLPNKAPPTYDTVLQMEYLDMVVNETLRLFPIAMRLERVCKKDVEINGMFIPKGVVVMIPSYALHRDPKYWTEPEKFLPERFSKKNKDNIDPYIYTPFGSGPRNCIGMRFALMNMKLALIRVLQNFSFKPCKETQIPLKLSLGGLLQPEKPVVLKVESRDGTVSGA

Turning to `[2H]C1([2H])OC([2H])([2H])C([2H])([2H])N(C(=O)c2cc(-c3cc(Cl)c4c(c3)CN([C@@H](C)C3CC3)C4=O)on2)C1([2H])[2H]` [Compound A, (S)-7-chloro-2-(1-cyclopropylethyl)-5-(3-(morpholine-4-carbonyl-2,2,3,3,5,5,6,6-d8)isoxazol-5-yl)isoindolin-1-one], in series [1], the microsomal CLint at 1 μM was below 3 µL/min/mg and the half-life at 1 μM was above 3.85 h. Moreover, the “Contribution of CYP3A4 to metabolism (in words)” value in series [2] is “no measureable contribution”.
`[2H]C1([2H])CN(C(=O)c2cc(-c3cc(Cl)c4c(c3)CN([C@@H](C)C3CC3)C4=O)on2)CC([2H])([2H])O1` [Compound B, (S)-7-chloro-2-(1-cyclopropylethyl)-5-(3-(morpholine-4-carbonyl-2,2,6,6-d4)isoxazol-5-yl)isoindolin-1-one]: in series [1], the microsomal CLint at 1 μM was determined as 9.5 µL/min/mg and the half-life at 1 μM stood at 1.22 h. In addition, in series [2], the “CYP 3A4 (% contribution)” value is 82.3%.
In the same order, the values of `[2H]C1([2H])COCC([2H])([2H])N1C(=O)c1cc(-c2cc(Cl)c3c(c2)CN([C@@H](C)C2CC2)C3=O)on1` [Compound C, (S)-7-chloro-2-(1-cyclopropylethyl)-5-(3-(morpholine-4-carbonyl-3,3,5,5-d4)isoxazol-5-yl)isoindolin-1-one] are 7 µL/min/mg, 1.66 h and 99.7%.
`C[C@@H](C1CC1)N1Cc2cc(-c3cc(C(=O)N4CCOCC4)no3)cc(Cl)c2C1=O` [Compound D, (S)-7-chloro-2-(1-cyclopropylethyl)-5-(3-(morpholine-4-carbonyl)isoxazol-5-yl)isoindolin-1-one, reference compound]: in series [1], the microsomal CLint at 1 μM came to 9.5 µL/min/mg and the half-life at 1 μM worked out at 1.22 h. In series [2], the “Contribution of CYP3A4 to metabolism (in words)” value is given as “metabolized predominately by CYP3A4” and the “CYP 3A4 (% contribution)” value is recorded as 100%.
